Reference: ChEMBL document CHEMBL4818999, “Pyrido[2, 3-d]pyrimidin-7(8H)-ones as new selective orally bioavailable Threonine Tyrosine Kinase (TTK) inhibitors” (Eur J Med Chem, 2021)

Experiments:
[1] = Toxicity in CB17-SCID mouse xenografted with human HCT-116 cells xenografted assessed as liver damage at 50 mg/kg, po administered once daily relative to control; type: organism-based; settings: in vivo
[2] = target: STE20/SPS1-related proline-alanine-rich protein kinase (Homo sapiens) (UniProt Q9UEW8); settings: dose 100.0 nM
Description: Inhibition of human STK39 at 100 nM by direct-filter Binding radiometric assay relative t

[3] = target: T1, Death-associated protein kinase 3 (Homo sapiens, UniProt O43293); settings: dose 100.0 nM
Target sequence in this assay (O43293 whole entry, looked up): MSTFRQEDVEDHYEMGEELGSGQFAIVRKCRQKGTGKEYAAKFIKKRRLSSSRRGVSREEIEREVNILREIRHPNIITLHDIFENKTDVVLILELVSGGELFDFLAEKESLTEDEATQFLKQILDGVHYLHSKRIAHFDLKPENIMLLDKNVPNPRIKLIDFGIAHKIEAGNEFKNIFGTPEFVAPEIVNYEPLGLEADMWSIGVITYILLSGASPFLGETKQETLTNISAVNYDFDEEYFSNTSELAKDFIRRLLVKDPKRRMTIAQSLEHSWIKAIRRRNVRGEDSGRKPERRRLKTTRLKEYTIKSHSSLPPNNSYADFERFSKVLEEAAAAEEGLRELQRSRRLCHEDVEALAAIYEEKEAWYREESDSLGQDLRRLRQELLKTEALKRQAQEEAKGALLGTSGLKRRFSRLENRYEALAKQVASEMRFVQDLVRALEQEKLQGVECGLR
Description: Inhibition of human DAPK3 at 100 nM by direct-filter Binding radiometric assay relative to control

[4] = target: Serine/threonine-protein kinase 16 (Homo sapiens) (UniProt O75716); settings: dose 100.0 nM
Description: Inhibition of human STK16 at 100 nM by direct-filter Binding radiometric assay relative to control

[5] = target: Dual specificity protein kinase TTK (Homo sapiens) (UniProt P33981); settings: dose 100.0 nM, time 40.0 min
[6] = organism: Homo sapiens; settings: dose 100.0 nM
Description: Inhibition of PIPK5 (unknown origin) at 100 nM direct filter-binding radiometric kinase activity assay relative to control

[7] = test system: HCT-116; test: Induction of apoptosis in human HCT-116 cells assessed as necrotic cells at 111.1 nM incubated for 48 hrs by annexin V and 7-AAD staining based flow cytometry analysis (reference value: 1.20 %); type: functional
[8] = AUC (0 to infinity) in Sprague-Dawley rat at 25 mg/kg, po; type: ADME, organism-based; set-up: time infinity, route oral, dose 25 mg/kg; settings: in vivo
[9] = test system: HCT-116; test: Induction of apoptosis in human HCT-116 cells assessed as late apoptotic cells at 333.3 nM incubated for 48 hrs by annexin V and 7-AAD staining based flow cytometry analysis (reference value: 1.20 %); type: functional
[10] = target: Serine/threonine-protein kinase DCLK1 (Homo sapiens) (UniProt O15075); settings: dose 100.0 nM
Description: Inhibition of human DCAMKL1 at 100 nM by direct-filter Binding radiometric assay relative to control

[11] = target: Mitogen-activated protein kinase 9 (Homo sapiens) (UniProt P45984); settings: dose 100.0 nM
Description: Inhibition of human recombinant JNK2 using ATF2 at 100 nM direct filter-binding radiometric kinase activity assay relative to control

[12] = test system: HCT-116; test: Induction of apoptosis in human HCT-116 cells assessed as viable cells at 1000 nM incubated for 48 hrs by annexin V and 7-AAD staining based flow cytometry analysis (reference value: 82.09 %); type: functional; settings: read-out: Activity
[13] = test system: COLO 205; test: Antiproliferative activity against human COLO-205 cells assessed as growth inhibition after 96 hrs by CCK8 assay; type: functional, cell-based; settings: COLO 205, 96 h
[14] = target: T2, Dual specificity protein kinase TTK (Homo sapiens, UniProt P33981); test: Inhibition of recombinant full-length human TTK using MBP as substrate incubated for 40 mins in presence of [gamma33P]ATP by scintillation counting based radiometry assay relative to control
T2 sequence (P33981 whole entry): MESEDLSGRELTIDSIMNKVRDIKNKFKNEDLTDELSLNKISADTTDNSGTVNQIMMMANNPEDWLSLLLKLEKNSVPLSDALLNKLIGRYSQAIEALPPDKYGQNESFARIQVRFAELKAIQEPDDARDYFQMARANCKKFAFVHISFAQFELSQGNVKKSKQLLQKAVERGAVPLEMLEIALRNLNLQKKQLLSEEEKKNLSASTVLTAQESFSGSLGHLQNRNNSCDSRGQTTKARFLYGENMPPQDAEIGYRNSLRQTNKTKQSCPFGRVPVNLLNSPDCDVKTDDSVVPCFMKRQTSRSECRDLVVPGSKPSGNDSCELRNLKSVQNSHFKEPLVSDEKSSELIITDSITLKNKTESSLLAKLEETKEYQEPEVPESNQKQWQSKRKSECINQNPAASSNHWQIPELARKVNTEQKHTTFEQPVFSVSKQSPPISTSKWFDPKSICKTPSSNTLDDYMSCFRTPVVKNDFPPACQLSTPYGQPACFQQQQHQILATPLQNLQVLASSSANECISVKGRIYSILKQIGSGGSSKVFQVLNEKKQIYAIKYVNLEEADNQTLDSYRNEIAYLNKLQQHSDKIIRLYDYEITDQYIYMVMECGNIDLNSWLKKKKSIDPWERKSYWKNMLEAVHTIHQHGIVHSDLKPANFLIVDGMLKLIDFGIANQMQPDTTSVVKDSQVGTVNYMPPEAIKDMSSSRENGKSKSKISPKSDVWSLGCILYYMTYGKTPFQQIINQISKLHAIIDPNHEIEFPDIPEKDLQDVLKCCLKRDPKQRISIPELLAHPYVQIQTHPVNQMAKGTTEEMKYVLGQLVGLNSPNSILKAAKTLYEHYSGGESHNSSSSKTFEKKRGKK

[15] = target: Phosphorylase b kinase gamma catalytic chain, liver/testis isoform (Homo sapiens) (UniProt P15735); settings: dose 100.0 nM
Description: Inhibition of human recombinant PHKG2 using ZIPtide at 100 nM direct filter-binding radiometric kinase activity assay relative to control

[16] = test system: HCT-116; test: Induction of apoptosis in human HCT-116 cells assessed as viable cells at 333.3 nM incubated for 48 hrs by annexin V and 7-AAD staining based flow cytometry analysis (reference value: 82.09 %); type: functional; settings: read-out: Activity
[17] = target: MAP/microtubule affinity-regulating kinase 3 (Homo sapiens, UniProt P27448); test: Binding affinity to wild-type human full length MARK3 (M1 to L729 residues) expressed in bacterial expression system by measuring active site-directed competition binding based Kinomescan method
[18] = test system: HCT-116; test: Induction of apoptosis in human HCT-116 cells assessed as early apoptotic cells at 333.3 nM incubated for 48 hrs by annexin V and 7-AAD staining based flow cytometry analysis (reference value: 8.12 %); type: functional
[19] = test system: HCT-116; test: Induction of apoptosis in human HCT-116 cells assessed as […] cells at 1000 nM incubated for 48 hrs by annexin V and 7-AAD staining based flow cytometry analysis (reference value: 1.20 %); type: functional
[20] = target: Serine/threonine-protein kinase ULK2 (Homo sapiens) (UniProt Q8IYT8); settings: dose 100.0 nM
Description: Inhibition of human recombinant ULK2 (1 to 306) using casein at 100 nM direct filter-binding radiometric kinase activity assay relative to control

[21] = test system: HCT-116; test: Induction of apoptosis in human HCT-116 cells assessed as late apoptotic cells at 333.3 nM incubated for 48 hrs by annexin V and 7-AAD staining based flow cytometry analysis (reference value: 8.59 %); type: functional
[22] = test system: HCT-116; test: Induction of apoptosis in human HCT-116 cells assessed as late apoptotic cells at 1000 nM incubated for 48 hrs by annexin V and 7-AAD staining based flow cytometry analysis (reference value: 8.59 %); type: functional
[23] = target: T1, Death-associated protein kinase 3; test: Binding affinity to wild-type human partial length DAPK3 (M1 to A277 residues) expressed in bacterial expression system by measuring active site-directed competition binding based Kinomescan method
Target sequence in this assay (O43293 whole entry): as the sequence (O43293 whole entry, looked up) above

[24] = test system: A549; test: Antiproliferative activity against human A549 cells assessed as growth inhibition after 96 hrs by CCK8 assay; type: functional, cell-based; settings: A549, 96 h
[25] = target: Phosphatidylinositol 4,5-bisphosphate 3-kinase catalytic subunit delta isoform (Homo sapiens) (UniProt O00329); settings: dose 100.0 nM
Description: Inhibition of human PIK3CD at 100 nM by scintillation counting based direct-filter Binding radiometric assay relative to control

[26] = target: T2, Dual specificity protein kinase TTK; test: Binding affinity to wild-type human partial length TTK (N505 to V798 residues) expressed in bacterial expression system by active site-directed competition binding based Kinomescan method

Chain of MAP/microtubule affinity-regulating kinase 3 (P27448 whole entry, the tested form may be a part): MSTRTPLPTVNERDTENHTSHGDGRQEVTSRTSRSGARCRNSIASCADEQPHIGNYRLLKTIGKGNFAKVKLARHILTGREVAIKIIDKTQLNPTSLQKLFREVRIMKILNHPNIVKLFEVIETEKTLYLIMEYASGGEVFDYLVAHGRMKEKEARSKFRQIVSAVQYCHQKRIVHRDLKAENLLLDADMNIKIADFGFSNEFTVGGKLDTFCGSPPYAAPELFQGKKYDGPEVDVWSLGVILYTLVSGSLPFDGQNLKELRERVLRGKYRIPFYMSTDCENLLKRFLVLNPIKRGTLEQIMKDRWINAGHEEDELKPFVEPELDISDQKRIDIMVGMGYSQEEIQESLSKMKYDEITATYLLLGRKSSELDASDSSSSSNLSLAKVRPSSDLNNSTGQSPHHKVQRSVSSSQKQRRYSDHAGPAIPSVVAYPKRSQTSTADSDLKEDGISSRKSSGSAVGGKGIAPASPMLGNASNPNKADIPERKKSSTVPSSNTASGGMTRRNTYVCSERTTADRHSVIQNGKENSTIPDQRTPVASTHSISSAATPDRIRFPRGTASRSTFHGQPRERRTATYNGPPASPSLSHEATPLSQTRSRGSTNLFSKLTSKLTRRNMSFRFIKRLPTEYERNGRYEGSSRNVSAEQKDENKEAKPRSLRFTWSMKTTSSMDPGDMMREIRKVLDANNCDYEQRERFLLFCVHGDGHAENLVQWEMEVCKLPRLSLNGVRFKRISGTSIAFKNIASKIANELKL
Chain of Phosphatidylinositol 4,5-bisphosphate 3-kinase catalytic subunit delta isoform (Homo sapiens) (O00329 whole entry, the tested form may be a part, canonical isoform): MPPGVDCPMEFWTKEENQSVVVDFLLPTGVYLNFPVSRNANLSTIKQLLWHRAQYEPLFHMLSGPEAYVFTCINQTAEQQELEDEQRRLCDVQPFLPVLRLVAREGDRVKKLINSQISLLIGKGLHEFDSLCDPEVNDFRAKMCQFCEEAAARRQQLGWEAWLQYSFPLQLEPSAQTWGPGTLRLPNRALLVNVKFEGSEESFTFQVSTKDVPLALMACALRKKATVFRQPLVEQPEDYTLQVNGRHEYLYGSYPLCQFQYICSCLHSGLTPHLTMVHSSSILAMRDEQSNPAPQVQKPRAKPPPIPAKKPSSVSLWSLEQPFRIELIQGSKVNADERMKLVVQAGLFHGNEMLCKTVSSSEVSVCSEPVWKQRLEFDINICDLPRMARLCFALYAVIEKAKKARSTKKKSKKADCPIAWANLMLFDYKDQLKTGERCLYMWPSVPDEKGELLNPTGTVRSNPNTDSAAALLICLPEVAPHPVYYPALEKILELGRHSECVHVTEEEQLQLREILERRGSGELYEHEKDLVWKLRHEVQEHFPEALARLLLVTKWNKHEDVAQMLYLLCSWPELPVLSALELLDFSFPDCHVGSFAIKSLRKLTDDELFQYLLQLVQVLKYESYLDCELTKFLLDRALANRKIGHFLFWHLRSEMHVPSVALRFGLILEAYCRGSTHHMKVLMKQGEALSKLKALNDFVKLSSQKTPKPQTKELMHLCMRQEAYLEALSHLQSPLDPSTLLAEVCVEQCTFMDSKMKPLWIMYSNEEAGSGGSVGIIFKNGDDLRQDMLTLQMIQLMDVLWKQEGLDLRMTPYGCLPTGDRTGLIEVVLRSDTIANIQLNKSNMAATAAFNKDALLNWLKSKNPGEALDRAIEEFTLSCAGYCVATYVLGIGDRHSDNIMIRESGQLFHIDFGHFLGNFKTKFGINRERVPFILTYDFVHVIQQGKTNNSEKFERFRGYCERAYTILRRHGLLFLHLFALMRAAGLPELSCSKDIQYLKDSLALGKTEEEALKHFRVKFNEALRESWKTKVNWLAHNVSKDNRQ
Chain of Serine/threonine-protein kinase 16 (Homo sapiens) (O75716 whole entry): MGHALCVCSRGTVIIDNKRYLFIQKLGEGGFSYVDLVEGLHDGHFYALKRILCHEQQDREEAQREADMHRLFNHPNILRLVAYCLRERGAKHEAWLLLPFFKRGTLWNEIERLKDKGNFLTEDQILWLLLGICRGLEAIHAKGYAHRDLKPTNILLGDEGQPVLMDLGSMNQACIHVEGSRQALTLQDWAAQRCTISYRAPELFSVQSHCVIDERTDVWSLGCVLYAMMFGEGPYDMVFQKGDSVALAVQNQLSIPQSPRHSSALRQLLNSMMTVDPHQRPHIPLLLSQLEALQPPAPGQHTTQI
Chain of Serine/threonine-protein kinase DCLK1 (Homo sapiens) (O15075 whole entry): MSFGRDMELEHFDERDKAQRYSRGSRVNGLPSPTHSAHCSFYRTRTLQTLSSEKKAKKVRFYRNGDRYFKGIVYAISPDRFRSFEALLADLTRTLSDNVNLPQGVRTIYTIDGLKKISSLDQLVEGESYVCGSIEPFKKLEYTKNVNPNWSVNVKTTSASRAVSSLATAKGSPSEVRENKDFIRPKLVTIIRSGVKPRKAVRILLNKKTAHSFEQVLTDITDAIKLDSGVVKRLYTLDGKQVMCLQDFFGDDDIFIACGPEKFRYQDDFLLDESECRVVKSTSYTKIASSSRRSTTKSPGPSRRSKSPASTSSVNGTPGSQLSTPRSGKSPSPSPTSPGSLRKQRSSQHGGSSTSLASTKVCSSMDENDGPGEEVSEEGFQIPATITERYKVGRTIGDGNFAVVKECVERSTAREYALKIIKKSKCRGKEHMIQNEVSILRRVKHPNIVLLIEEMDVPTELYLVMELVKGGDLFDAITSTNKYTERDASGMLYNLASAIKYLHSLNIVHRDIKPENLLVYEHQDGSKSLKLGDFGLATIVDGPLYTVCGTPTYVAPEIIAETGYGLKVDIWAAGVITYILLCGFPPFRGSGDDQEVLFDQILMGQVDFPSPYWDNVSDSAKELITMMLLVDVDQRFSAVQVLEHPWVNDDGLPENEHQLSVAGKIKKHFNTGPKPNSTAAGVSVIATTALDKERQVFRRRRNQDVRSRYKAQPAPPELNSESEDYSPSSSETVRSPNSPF
Chain of Phosphorylase b kinase gamma catalytic chain, liver/testis isoform (Homo sapiens) (P15735 whole entry, canonical isoform): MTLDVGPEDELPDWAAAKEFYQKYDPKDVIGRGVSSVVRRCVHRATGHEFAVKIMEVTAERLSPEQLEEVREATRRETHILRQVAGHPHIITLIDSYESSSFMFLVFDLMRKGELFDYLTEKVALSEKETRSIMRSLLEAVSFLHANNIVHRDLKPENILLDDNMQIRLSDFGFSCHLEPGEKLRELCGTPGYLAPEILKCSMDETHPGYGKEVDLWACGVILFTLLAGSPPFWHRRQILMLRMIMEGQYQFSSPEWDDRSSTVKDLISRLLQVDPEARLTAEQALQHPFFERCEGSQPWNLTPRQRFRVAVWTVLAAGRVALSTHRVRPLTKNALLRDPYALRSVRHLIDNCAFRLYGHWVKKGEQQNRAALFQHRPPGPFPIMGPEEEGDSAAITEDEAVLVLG
Chain of Serine/threonine-protein kinase ULK2 (Homo sapiens) (Q8IYT8 whole entry): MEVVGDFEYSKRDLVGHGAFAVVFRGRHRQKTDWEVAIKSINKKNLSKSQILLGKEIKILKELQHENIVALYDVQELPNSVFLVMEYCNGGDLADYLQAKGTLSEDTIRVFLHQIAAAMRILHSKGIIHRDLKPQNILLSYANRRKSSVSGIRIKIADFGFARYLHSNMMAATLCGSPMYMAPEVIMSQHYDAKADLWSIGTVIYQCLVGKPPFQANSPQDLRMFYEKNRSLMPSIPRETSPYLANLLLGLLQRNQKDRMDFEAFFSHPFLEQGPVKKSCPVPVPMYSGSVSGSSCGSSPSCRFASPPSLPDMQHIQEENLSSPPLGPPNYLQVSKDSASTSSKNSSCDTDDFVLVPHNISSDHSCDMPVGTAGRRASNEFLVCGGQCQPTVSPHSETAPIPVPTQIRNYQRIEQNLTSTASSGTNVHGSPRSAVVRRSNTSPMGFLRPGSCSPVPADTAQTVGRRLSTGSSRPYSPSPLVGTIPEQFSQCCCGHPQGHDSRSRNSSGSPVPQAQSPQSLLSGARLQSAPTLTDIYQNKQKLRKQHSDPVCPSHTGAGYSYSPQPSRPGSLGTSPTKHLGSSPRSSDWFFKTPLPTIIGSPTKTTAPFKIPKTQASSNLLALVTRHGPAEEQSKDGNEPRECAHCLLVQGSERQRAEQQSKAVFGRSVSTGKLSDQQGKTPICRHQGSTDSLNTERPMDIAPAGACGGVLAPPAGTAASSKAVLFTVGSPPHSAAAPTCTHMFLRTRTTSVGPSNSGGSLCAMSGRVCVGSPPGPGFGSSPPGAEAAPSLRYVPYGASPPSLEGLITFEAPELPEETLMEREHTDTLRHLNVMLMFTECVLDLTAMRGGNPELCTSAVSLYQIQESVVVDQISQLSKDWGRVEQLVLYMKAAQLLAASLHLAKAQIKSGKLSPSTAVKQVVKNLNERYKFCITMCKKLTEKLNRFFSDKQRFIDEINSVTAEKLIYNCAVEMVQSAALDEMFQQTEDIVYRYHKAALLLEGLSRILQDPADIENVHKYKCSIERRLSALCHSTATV

inhibition [2]: 75%
inhibition [4]: 87%
inhibition [5]: 98.1%
inhibition [6]: 77%
AUC(0-inf) [8]: 13000 ng·h/mL
inhibition [10]: 80%
inhibition [11]: 86%
IC50 [13]: 280 nM
IC50 [14]: 23 nM
inhibition [15]: 87%
Kd [17]: 11 nM
inhibition [20]: 85%
IC50 [24]: 4.4 µM
inhibition [25]: 100%
Kd [26]: 0.15 nM
Compound: COc1cc(N2CCN(C)CC2)ccc1Nc1ncc2c(C)cc(=O)n([C@H]3CC[C@@H](NC(=O)C4CCCCC4)CC3)c2n1
Activity [1]: Non-Toxic
inhibition [3]: 94.5%
Activity [7]: 0.75%
Activity [9]: 2.04%
viability at 1 µM [12]: 56.6%
viability at 0.3333 µM [16]: 70.7%
Activity [18]: 13.5%
Activity [19]: 3.44%
Activity [21]: 13.81%
Activity [22]: 21.18%
Kd [23]: 13 nM
